Values quoted from earlier work in patent US20200229456A1, “Synergistic Formulation Including At Least One Gibberellin Compound and Salicyclic Acid” (Stoller Enterprises, Inc., priority 2018, published 2020).

What was measured:
tomatoes = conditions: GA3 at 0.1%, CaCl2 at 1.5%, SA at 0.4 mM
banana slices = conditions: GA3 applied exogenously on banana slices
Cavendish bananas = conditions: 300 ppm GA3 or 4 mM SA, versus other treatments
Bananas = conditions: SA at either 0.5 mM or 1 mM

SMILES	shelf life of tomatoes (tomatoes)	postponement of accumulation of sucrose (banana slices) [days]	respiration rate or ethylene profile (banana slices)	delay in ripening (Cavendish bananas)	fruit firmness (Bananas)	respiration rates (Bananas)	sugar content (Bananas)
[Ca+2].[Cl-].[Cl-] [CaCl2, calcium chloride]	extended the shelf life	–	–	–	–	–	–
C=C1C[C@]23C[C@@]1(O)CC[C@H]2[C@@]12C=C[C@H](O)[C@@](C)(C(=O)O1)[C@H]2[C@@H]3C(=O)O [GA3, gibberellic acid]	extended the shelf life	2	does not alter	more considerable delay in ripening	–	–	–
O=C(O)c1ccccc1O [SA, Salicylic acid]	extended the shelf life	–	–	more considerable delay in ripening	firmer fruits	decrease in respiration rates	lower sugar content
